From patent publication US11168052B2, “Carbamate derivative compounds, processes for preparing them and their uses” (BIO-PHARM SOLUTIONS CO., LTD., priority 2016, dated 2021)

Assays:
[1] = system: Post operation-induced pain model in rats; assay: Antiallodynic activity on post operative-induced pain model (PO), von Frey test; format: in vivo, Sprague-Dawley rats; details: dose 200 mg/kg, von Frey paw withdrawal threshold relative to sham
Excerpt: Male Sprague-Dawley rats (Orient Bio, Korea, 230-250g) were habituated at least 3 days before surgery, and were allowed free access to food and water throughout the experimentation. Room temperature and humidity were maintained at 24±2 and 50±10%, respectively. The process of performing the post-operation model's surgery was adapted from Brennan et al (1996). At first, rats with allodynia (threshold valueless than 8 g) were excluded in Pre-von Frey Test. During the post-operation surgery, rats were anesthetized under gaseous anesthesia with 2% isoflurane. The rat was placed, lying face down, on 37 degree warm plate to prevent against hypothermia. The ipsilateral plantar aspect (left side) of the hind paw was prepared in a sterile manner with a 10% povidone-iodine solution. […]
For efficacy measure, the threshold value of group C was assigned 100% efficacy, and the percentage of the threshold values of group A compared to group C (for each different dose level) were calculated as the efficacies. Base on these efficacy values, ED50 was calculated using log fitting. […]
For pain threshold test, all animals were placed in a stainless steel meshed chamber and habituated for 30 min in the test cage. The tactile sensitivity of the ipsilateral hind paw was measured using the up-and-down method (Dixon, 1980) with seven von Frey monofilaments (0.4, 1, 2, 4, 6, 8, and 15 g) using 3 trials. […]

[2] = system: PTZ (Pentylenetetrazol)-induced clonic seizure in mice; assay: Anti-epilepsy activity, scPTZ test in mouse; format: in vivo, ICR mice; details: ip
Excerpt: In this experiment, each test compound sample was formulated as described in Biological Experimental Example 1, and administered intraperitoneally to the test animals (mice; ICR or Rat; SD); Experimental animals, male ICR mice and male SD rats, were purchased from OrientBio or Nara biotech, Korea, and housed 4-5 mice per a cage for 4-5 days. The range of mice body weight was used between 19 and 26 grams and range of rats body weight was used between 100 and 130 grams. After Peak time (0.5, 1, 2 and 4 hr) from the administration, PTZ (Pentylenetetrazol) was administered subcutaneously in the concentration capable of inducing 97% intermittent convulsions (mice: 100-110 mg/kg?bw, 10 μl/g, or rats: 90-110 mg/kg?bw, 2 μl/g). If clonic seizure was not observed for at least 30 minutes in the PTZ administered animal, it can be considered that the test compound has anti-epilepsy activity. The median effective dose (ED50) is determined using 6 animals per a concentration (total three different concentrations), and calculated by Litchfield and Wicoxon log-probit method which is a dose-response relationship.

[3] = system: Lithium-pilocarpine induced seizure in rats; assay: Lithium pilocarpine model (inter); format: in vivo, Sprague-Dawley rats; details: Rattus norvegicus
Experimental: Male Sprague-Dawley rats (purchased from Orient Bio Inc. Korea) of body weight 175 grams were used for these studies and 3 rats per cage were housed for 4-5 days. On the day prior to SE, rats received 127 mg/kg lithium chloride (Sigma, St. Louis, Mo., U.S.A.) intraperitoneally (i.p.). Approximately 18-20 h following this treatment, rats were given an i.p. injection of the concentration capable of inducing 97% intermittent convulsions pilocarpine(Sigma, 30-43 mg/kg). An i.p. injection of 2 mg/kg methyl-scopolamine (Sigma) was administered 30 min prior to pilocarpine to block the effects of the muscarinic agonist on peripheral cholinergic receptors. Test drugs were dissolved in 20% tween80 (Sigma).
The drugs were administered intraperitoneally (i.p.) in a volume of 2 μl/g body weight. Pharmacological effects of all of the test materials were evaluated to compare test groups (n=6) with a control group (n=6). Control group was administered vehicle only. The efficacy was measured 0.5, 1, 2, or 4 hours after the administration of the test material. The time point that the most animals were protected was defined as peak time and the ED50 was determined at peak time. The animals were then transferred to observation cages and observed continuously for 90 min Seizure was elicited in approximately 95% of the control group. […]

What does the source list for NC(=O)O[C@@H]1CCc2cccc(Cl)c2[C@@H]1O [Example 1, (1S, 2R)-8-chloro-1-hydroxy-1,2,3,4-tetrahydronaphthalen-2-yl carbamate]?
Post Operation Efficacy (% of sham threshold) [1]: 200 (29.8%); ED50 [2]: 12.5 mg/kg; ED50 [3]: 24.5 mg/kg
